Measured values published in publication PMC10746543, “Design principles for cyclin K molecular glue degraders” (Nature Chemical Biology, 2023).
Where “and” joins values, the source holds several entries; their conditions need not be identical. Equal entries are not always repeated. Where two headings read alike, the source gives them in different places.

Key:
[1] = biological target: T1, CDK12–cyclin K and DDB1 (Homo sapiens, UniProt Q16531+Q9NYV4, K965R); assay: TR-FRET ternary complex formation assay (compound titration); type: binding
T1 construct: His6–CDK12 (a.a. 713–1,052); full-length or beta-propeller B domain deletion (ΔBPB: a.a. 396–705 deleted) constructs of His6–DDB1ΔBPB, StrepII–Avi–DDB1, or His6–Spy–DDB1; made in house; host or cells: Trichoplusia ni High Five insect cells (baculovirus)
In short: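 A time delay of 70 μs preceded acquisition, limiting background fluorescence; the ratio of emission at 520 versus 490 nm gave the TR-FRET value.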

[2] = test system: cyclin K; assay: Label-free quantitative mass spectrometry in MDA-MB-231 cells, cyclin K; type: cell-based, human
Procedure: (§1) MDA-MB-231 cells were treated with DMSO or a cyclin K degrader compound at 1 µM for 5 h. Cells were collected by centrifugation and washed with phosphate-buffered saline before snap freezing in liquid nitrogen. Cells were lysed by addition of lysis buffer (8 M urea, 50 mM NaCl, 50 mM 4-(2-hydroxyethyl)-1-piperazineethanesulfonic acid (EPPS) pH 8.5, and protease and phosphatase inhibitors) and homogenization by bead beating (BioSpec) for three repeats of 30 s at 2,400 rpm. Bradford assay was used to determine the final protein concentration in the clarified cell lysate. Then 50 µg of protein for each sample was reduced, alkylated and precipitated using methanol/chloroform as previously described, and the resulting washed precipitated protein was allowed to air dry. Precipitated protein was resuspended in 4 M urea, 50 mM HEPES pH 7.4, followed by dilution to 1 M urea with the addition of 200 mM EPPS, pH 8. Proteins were first digested with LysC (1:50; enzyme:protein) for 12 h at room temperature. The LysC digestion was diluted to 0.5 M urea with 200 mM EPPS pH 8 followed by digestion with trypsin (1:50; enzyme:protein) for 6 h at 37 °C. Sample digests were acidified with formic acid to a pH of 2–3 before desalting using C18 solid phase extraction plates (SOLA, Thermo Fisher Scientific). Desalted peptides were dried in a vacuum-centrifuged and reconstituted in 0.1% formic acid for liquid chromatography–mass spectrometry analysis.
(§2) Data were collected using a TimsTOF Pro2 (Bruker Daltonics) coupled to a nanoElute LC pump (Bruker Daltonics) via a CaptiveSpray nano-electrospray source. Peptides were separated on a reversed-phase C18 column (25 cm × 75 µm inner diameter, […], IonOpticks) containing an integrated captive spray emitter. Peptides were separated using a 50 min gradient of 2–30% buffer B (acetonitrile in 0.1% formic acid) with a flow rate of 250 nl min^−1 and column temperature maintained at 50 °C.
(§3) Data-dependent acquisition (DDA) was performed in Parallel Accumulation-Serial Fragmentation (PASEF) mode to determine effective ion mobility windows for downstream diaPASEF data collection. The ddaPASEF parameters included: 100% duty cycle using accumulation and ramp times of 50 ms each, one Trapped Ion Mobility Spectrometry(TIMS)-MS scan and ten PASEF ramps per acquisition cycle. The TIMS-MS survey scan was acquired between 100 m/z and 1,700 m/z and 1/K0 of 0.7–1.3 V s cm^−2. Precursors with one to five charges were selected, and those that reached an intensity threshold of 20,000 arbitrary units were actively excluded for 0.4 min. The quadrupole isolation width was set to 2 m/z for m/z < 700 and 3 m/z for m/z > 800, with the m/z between 700 m/z and 800 m/z being interpolated linearly. […] To perform diaPASEF, the precursor distribution in the DDA m/z-ion mobility plane was used to design an acquisition scheme for data-independent acquisition (DIA) data collection that included two windows in each 50 ms diaPASEF scan. Data were acquired using 16 of these 25 Da precursor double window scans (creating 32 windows) that covered the diagonal scan line for doubly and triply charged precursors, with singly charged precursors able to be excluded by their position in the m/z-ion mobility plane. These precursor isolation windows were defined between 400 m/z and 1,200 m/z and 1/K0 of 0.7–1.3 V s cm^−2.
(§4) DirectDIA mode includes first extracting the DIA data into a collection of MS2 spectra which are searched using Spectronaut’s Pulsar search engine. The search results are then used to generate a spectral library which is then employed for the targeted analysis of the DIA data. MS/MS spectra were searched against a Swissprot human database (January 2021). Database search criteria largely followed the default settings for directDIA including: tryptic with two missed cleavages, fixed carbomidomethylation of cysteine, and variable oxidation of methionine and acetylation of protein N-termini and precursor Q-value (FDR) cut-off of 0.01. […]

[3] = biological target: T2, CDK12 (Homo sapiens, UniProt Q16531+Q9NYV4); assay: Label-free quantitative mass spectrometry in MDA-MB-231 cells, CDK12; type: cell-based
T2 construct: endogenous in cells; host or cells: MDA-MB-231
Procedure: as §1, §2, §3, §4

[4] = biological target: T3, CDK13 (Homo sapiens, UniProt Q14004+Q16531); assay: Label-free quantitative mass spectrometry in MDA-MB-231 cells, CDK13; type: cell-based
T3 construct: endogenous in cells; host or cells: MDA-MB-231
Procedure: as §1, §2, §3, §4

[5] = compound concentration 0.468 nM
[6] = compound concentration 7.92001 nM
[7] = compound concentration 15.84 nM
[8] = compound concentration 30.96 nM
[9] = compound concentration 62.6401 nM
[10] = compound concentration 125.28 nM
[11] = compound concentration 244.8 nM
[12] = compound concentration 993.601 nM
[13] = compound concentration 2001.6 nM
[14] = in vitro complex formation, 50 nM CDK12–cyclin K, 100 nM DDB1, text and figures, read-out: TR-FRET EC50
[15] = sheet MOESM7, read-out: log TR-FRET EC50 (converted)
[16] = source data sheet correlations, read-out: TR-FRET EC50
[17] = label-free quantitative MS, replicate values
[18] = normalised to DMSO = 1, replicate values
[19] = compound concentration 79.2001 nM
[20] = compound concentration 158.4 nM
[21] = compound concentration 309.6 nM
[22] = compound concentration 626.401 nM
[23] = compound concentration 1252.8 nM
[24] = compound concentration 9936.01 nM
[25] = compound concentration 20016 nM

T2 sequence (Q9NYV4 whole entry): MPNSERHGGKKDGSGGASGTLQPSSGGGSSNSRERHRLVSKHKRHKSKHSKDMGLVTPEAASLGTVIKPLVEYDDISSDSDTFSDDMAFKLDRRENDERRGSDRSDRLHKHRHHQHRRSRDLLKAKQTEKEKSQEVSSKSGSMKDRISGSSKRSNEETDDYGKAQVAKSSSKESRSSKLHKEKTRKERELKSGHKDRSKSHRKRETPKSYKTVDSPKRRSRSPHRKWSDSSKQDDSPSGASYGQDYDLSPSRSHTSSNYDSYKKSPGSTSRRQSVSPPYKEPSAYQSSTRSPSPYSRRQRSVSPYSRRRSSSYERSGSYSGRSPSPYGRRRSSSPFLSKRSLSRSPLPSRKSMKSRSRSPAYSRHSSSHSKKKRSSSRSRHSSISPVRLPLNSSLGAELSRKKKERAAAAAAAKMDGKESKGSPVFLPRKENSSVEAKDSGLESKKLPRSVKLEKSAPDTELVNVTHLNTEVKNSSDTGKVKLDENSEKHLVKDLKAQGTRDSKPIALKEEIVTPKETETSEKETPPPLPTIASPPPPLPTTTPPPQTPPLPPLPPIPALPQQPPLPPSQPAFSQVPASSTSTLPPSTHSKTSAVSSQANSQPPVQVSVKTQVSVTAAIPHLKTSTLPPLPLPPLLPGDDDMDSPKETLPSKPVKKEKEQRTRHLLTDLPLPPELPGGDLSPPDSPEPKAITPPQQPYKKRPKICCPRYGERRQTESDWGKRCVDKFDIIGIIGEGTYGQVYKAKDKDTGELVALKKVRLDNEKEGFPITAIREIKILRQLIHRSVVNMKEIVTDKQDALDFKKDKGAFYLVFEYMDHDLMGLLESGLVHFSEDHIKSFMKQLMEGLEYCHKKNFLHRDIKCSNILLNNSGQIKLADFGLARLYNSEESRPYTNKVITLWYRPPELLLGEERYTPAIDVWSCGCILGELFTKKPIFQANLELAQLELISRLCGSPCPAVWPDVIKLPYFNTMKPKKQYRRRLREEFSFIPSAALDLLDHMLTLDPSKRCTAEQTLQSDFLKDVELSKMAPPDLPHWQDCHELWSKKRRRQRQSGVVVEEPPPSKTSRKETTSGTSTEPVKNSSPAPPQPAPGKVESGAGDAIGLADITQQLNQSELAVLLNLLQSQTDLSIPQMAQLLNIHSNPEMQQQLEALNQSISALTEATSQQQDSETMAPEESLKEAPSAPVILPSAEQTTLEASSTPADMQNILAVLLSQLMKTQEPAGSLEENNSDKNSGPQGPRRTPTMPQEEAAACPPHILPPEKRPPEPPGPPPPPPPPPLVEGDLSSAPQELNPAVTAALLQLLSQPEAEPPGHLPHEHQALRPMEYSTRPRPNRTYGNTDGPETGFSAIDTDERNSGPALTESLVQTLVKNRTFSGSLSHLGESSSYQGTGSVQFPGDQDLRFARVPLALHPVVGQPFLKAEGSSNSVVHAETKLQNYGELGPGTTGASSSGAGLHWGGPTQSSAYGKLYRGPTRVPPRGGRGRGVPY
T2 sequence (O75909 whole entry partner): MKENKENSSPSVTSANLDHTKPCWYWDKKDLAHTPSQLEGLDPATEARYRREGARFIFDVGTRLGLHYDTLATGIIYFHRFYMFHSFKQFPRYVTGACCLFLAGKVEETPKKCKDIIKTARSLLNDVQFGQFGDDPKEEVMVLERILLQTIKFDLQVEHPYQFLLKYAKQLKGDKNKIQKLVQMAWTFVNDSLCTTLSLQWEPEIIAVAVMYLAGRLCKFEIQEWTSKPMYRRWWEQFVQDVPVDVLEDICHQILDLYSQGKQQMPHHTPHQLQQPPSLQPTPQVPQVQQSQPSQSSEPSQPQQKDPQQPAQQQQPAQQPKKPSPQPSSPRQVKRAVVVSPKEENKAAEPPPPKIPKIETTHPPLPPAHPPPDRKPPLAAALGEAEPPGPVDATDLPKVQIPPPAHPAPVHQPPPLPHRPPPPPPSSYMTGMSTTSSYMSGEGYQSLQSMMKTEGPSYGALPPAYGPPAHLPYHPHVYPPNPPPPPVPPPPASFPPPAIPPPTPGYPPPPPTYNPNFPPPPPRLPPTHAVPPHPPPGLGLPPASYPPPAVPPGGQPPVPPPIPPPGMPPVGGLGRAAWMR
T2 sequence (Q16531 2-1140 limits assumed): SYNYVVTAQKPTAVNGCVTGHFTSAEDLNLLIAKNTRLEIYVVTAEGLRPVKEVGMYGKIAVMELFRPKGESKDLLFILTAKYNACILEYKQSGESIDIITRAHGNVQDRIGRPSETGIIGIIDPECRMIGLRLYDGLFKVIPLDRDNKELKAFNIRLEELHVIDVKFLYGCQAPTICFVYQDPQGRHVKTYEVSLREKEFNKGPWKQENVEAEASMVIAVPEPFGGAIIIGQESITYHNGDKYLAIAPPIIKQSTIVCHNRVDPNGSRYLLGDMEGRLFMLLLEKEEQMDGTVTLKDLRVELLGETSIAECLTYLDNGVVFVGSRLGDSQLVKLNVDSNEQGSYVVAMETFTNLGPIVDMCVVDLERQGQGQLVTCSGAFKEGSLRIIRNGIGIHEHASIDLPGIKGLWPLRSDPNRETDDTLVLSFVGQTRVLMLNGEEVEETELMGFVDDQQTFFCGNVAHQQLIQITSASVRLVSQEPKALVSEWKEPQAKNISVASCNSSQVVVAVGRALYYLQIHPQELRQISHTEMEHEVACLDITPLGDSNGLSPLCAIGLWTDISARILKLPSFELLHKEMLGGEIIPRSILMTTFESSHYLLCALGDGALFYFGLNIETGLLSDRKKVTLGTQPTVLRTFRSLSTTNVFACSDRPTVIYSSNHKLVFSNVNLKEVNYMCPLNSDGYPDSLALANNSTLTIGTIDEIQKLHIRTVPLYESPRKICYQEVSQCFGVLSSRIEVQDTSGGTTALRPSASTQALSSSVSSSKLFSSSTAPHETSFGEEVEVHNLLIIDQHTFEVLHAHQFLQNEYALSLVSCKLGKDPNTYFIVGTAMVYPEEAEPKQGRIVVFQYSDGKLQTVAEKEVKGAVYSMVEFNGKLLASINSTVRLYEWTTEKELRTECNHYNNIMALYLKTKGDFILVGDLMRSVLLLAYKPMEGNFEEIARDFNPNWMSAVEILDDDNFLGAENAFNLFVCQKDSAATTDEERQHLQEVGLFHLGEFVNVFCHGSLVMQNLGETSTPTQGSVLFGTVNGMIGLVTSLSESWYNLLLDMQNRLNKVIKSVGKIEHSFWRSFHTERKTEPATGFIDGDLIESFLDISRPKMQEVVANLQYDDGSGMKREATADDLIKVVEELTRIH
T3 sequence (Q14004 whole entry): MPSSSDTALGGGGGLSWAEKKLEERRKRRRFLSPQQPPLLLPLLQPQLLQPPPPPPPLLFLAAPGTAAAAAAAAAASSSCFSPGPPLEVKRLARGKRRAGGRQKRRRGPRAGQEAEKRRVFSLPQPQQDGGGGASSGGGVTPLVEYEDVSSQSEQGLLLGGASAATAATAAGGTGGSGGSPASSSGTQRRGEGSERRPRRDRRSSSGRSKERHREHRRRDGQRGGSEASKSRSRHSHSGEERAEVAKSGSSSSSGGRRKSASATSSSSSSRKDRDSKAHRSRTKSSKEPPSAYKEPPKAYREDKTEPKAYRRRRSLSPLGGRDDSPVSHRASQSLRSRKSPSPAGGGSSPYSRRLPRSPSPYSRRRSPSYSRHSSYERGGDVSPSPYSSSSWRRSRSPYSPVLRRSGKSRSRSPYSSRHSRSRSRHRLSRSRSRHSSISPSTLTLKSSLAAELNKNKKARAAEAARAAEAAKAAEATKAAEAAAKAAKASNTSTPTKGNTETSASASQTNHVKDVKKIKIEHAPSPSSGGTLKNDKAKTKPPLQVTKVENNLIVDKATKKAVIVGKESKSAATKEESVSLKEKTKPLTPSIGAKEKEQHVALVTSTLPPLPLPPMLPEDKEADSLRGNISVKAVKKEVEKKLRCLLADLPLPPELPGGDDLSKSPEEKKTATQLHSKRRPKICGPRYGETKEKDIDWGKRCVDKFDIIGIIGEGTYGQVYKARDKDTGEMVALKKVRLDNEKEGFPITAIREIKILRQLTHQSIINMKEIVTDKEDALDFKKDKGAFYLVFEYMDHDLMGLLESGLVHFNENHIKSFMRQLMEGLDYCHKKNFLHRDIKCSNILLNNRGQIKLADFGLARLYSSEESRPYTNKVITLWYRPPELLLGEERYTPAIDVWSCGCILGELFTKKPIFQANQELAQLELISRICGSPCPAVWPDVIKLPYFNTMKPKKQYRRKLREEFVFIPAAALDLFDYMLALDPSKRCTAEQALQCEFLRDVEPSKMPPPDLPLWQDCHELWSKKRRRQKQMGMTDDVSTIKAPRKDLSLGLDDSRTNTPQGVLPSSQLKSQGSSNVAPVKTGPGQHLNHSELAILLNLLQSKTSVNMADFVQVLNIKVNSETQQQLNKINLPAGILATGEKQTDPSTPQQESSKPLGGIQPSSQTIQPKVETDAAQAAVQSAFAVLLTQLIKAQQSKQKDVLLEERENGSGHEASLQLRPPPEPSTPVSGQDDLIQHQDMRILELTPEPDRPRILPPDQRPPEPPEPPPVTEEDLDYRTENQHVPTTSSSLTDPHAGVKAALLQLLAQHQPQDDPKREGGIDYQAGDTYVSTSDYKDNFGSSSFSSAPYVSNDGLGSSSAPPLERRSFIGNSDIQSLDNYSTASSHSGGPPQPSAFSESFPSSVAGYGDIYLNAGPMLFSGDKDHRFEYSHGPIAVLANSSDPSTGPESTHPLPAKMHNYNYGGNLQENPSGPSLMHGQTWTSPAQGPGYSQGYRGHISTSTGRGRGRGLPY
T3 sequence (O75909 whole entry partner): as the sequence (O75909 whole entry partner) above
T3 sequence (Q16531 2-1140 limits assumed): as the sequence (Q16531 2-1140 limits assumed) above

| TR-FRET signal [1, 5] | TR-FRET signal ([1]; compound concentration 2.16 nM) | TR-FRET signal ([1]; compound concentration 3.6 nM) | TR-FRET signal [1, 6] | TR-FRET signal [1, 7] | TR-FRET signal [1, 8] | TR-FRET signal [1, 9] | TR-FRET signal [1, 10] | TR-FRET signal [1, 11] | TR-FRET signal [1, 12] | TR-FRET signal [1, 13] | EC50 [1, 14] | EC50 [1, 15] | EC50 [1, 16] | TR-FRET signal ([1]; compound concentration 4.68 nM) | TR-FRET signal ([1]; compound concentration 21.6 nM) | TR-FRET signal ([1]; compound concentration 36 nM) | TR-FRET signal [1, 19] | TR-FRET signal [1, 20] | TR-FRET signal [1, 21] | Structure (SMILES) | also measured |
| --- | --- | --- | --- | --- | --- | --- | --- | --- | --- | --- | --- | --- | --- | --- | --- | --- | --- | --- | --- | --- | --- |
| 0.3356 and 0.3148 | 0.4152 and 0.4184 | 0.5887 and 0.6016 | 0.8771 and 0.9002 | 1.301 and 1.376 | 2 and 2.052 | 2.747 and 2.77 | 3.33 and 3.298 | 3.75 and 3.634 | 4.177 and 4.02 | 4.179 and 4.0366 | 38 ± 1 nM | 37.8 nM | 37.8 nM |  |  |  |  |  |  | C[C@H](C(=O)Nc1nc2ccccc2[nH]1)N1Cc2ccccc2C1=O [compound 919278] | cyclin K abundance (label-free MS) ([2]; individual replicates, sheet EDF7): 525.324 and 551.956; cyclin K abundance (label-free MS) [2, 17]: 525.324 and 551.956; CCNK peptide count (DMSO-normalised) [2, 18]: 0.287 and 0.307; average CCNK peptide count ([2]; sheet EDF7): 538.64; CDK12 peptide count [3, 17]: 562.617 and 625.634; CDK12 peptide count (DMSO-normalised) [3, 18]: 0.6251 and 0.6462; CDK13 peptide count [4, 17]: 457.834 and 405.628; CDK13 peptide count (DMSO-normalised) [4, 18]: 0.6811 and 0.6233 |
| 0.3108 and 0.3043 | 0.3247 and 0.3252 | 0.3605 and 0.3572 | 0.4123 and 0.4112 | 0.5374 and 0.5369 | 0.7082 and 0.7121 | 1.02 and 1.082 | 1.467 and 1.538 | 2.062 and 2.196 | 3.096 and 3.149 | 3.3098 and 3.397 | 263 ± 13 nM | 263 nM |  | 0.1862 and 0.1908 | 0.3061 and 0.3287 | 0.5639 and 0.6148 | 0.9671 and 1.036 | 1.482 and 1.527 | 2.068 and 2.079 | O=C(CSc1nc2ccccc2[nH]1)Nc1ccc(Cl)cn1 [dCeMM3] | EC50 ([1]; Supplementary Table 2, read-out: TR-FRET EC50 TR-FRET): 263 nM; TR-FRET signal [1, 22]: 2.602 and 2.623; TR-FRET signal [1, 23]: 3.107 and 3.1711; TR-FRET signal ([1]; compound concentration 2448 nM): 3.437 and 3.468; TR-FRET signal [1, 24]: 3.722 and 3.727; TR-FRET signal [1, 25]: 3.796 and 3.749 |
|  |  |  |  |  |  |  |  |  |  |  | 15 ± 1 nM |  | 15.3 nM |  |  |  |  |  |  | Cc1cc2nc(CNc3nc(N4CCN(C)CC4)nc4c(Br)cnn34)[nH]c2cc1C [DS73, reference compound] | TR-FRET signal at compound concentration 0.468 nM ([1]; compound concentration 0.468 nM, raw replicate titration data): 0.2078 and 0.3464 and 0.3268 and 0.2028; TR-FRET signal at compound concentration 2.16 nM ([1]; compound concentration 2.16 nM, raw replicate titration data): 0.3181 and 0.4574 and 0.408 and 0.306; TR-FRET signal at compound concentration 3.6 nM ([1]; compound concentration 3.6 nM, raw replicate titration data): 0.571 and 0.665 and 0.6145 and 0.5357; TR-FRET signal at compound concentration 7.92001 nM ([1]; compound concentration 7.92001 nM, raw replicate titration data): 1.164 and 1.12 and 0.9555 and 1.048; TR-FRET signal at compound concentration 15.84 nM ([1]; compound concentration 15.84 nM, raw replicate titration data): 2.581 and 2.125 and 1.889 and 2.1704; TR-FRET signal at compound concentration 30.96 nM ([1]; compound concentration 30.96 nM, raw replicate titration data): 3.773 and 3.741 and 3.496 and 3.714; TR-FRET signal at compound concentration 62.6401 nM ([1]; compound concentration 62.6401 nM, raw replicate titration data): 3.949 and 4.21 and 4.046 and 3.965; TR-FRET signal at compound concentration 125.28 nM ([1]; compound concentration 125.28 nM, raw replicate titration data): 3.981 and 4.358 and 4.135 and 3.99; TR-FRET signal at compound concentration 244.8 nM ([1]; compound concentration 244.8 nM, raw replicate titration data): 3.942 and 4.1851 and 4.076 and 4.006; TR-FRET signal at compound concentration 993.601 nM ([1]; compound concentration 993.601 nM, raw replicate titration data): 4.043 and 4.296 and 4.229 and 3.955; TR-FRET signal at compound concentration 2001.6 nM ([1]; compound concentration 2001.6 nM, raw replicate titration data): 4.148 and 4.166 and 4.035 and 3.981 |
| 0.3316 and 0.3176 | 0.3609 and 0.3684 | 0.446 and 0.4561 | 0.6045 and 0.6093 | 0.8627 and 0.8782 | 1.396 and 1.344 | 1.902 and 1.956 | 2.531 and 2.559 | 3.133 and 3.085 | 3.858 and 3.701 | 3.973 and 3.947 | 83 ± 4 nM | 83.2 nM | 83.2 nM | 0.2526 and 0.2575 | 0.6074 and 0.6249 | 1.231 and 1.287 | 2.008 and 2.099 | 2.698 and 2.725 | 3.151 and 3.239 | O=C(CSc1nnc2c(n1)[nH]c1ccccc12)Nc1ccc(Cl)cn1 [dCeMM2] | TR-FRET signal [1, 22]: 3.549 and 3.629; TR-FRET signal [1, 23]: 3.752 and 3.846; TR-FRET signal ([1]; compound concentration 2448 nM): 3.918 and 3.967; TR-FRET signal [1, 24]: 3.896 and 3.914; TR-FRET signal [1, 25]: 3.769 and 3.757 |
| 0.3047 and 0.3012 | 0.3265 and 0.3171 | 0.3554 and 0.3435 | 0.4106 and 0.4108 | 0.4953 and 0.4972 | 0.6975 and 0.7097 | 1.033 and 1.024 | 1.438 and 1.46 | 2.039 and 2.019 | 3.062 and 3.005 | 3.478 and 3.348 | 279 ± 12 nM | 279 nM | 279 nM | 0.2015 and 0.1931 | 0.3497 and 0.3693 | 0.6301 and 0.6713 | 1.054 and 1.091 | 1.569 and 1.639 | 2.287 and 2.2 | Cc1ccc(C(=O)N2CSCC2C(=O)Nc2ncc(C)s2)o1 (centres unmarked) [dCeMM4] | TR-FRET signal [1, 22]: 2.739 and 2.6898; TR-FRET signal [1, 23]: 3.187 and 3.255; TR-FRET signal ([1]; compound concentration 2448 nM): 3.234 and 3.447; TR-FRET signal [1, 24]: 3.901 and 3.875; TR-FRET signal [1, 25]: 3.981 and 3.769 |
